Source: ChEMBL document CHEMBL3044580, “Insecticide selectivity and behavioral response of the earwig Doru luteipes” (2011)
Values after ≈ are worked out from the molar mass of the structure shown. Active and inactive are the calls of the source. The rule behind the calls is not given here.

Key:
Spodoptera frugiperda [1] = assay: Relative toxicity in second instar Spodoptera frugiperda (fall armyworm) in compound treated maize leaf assessed as mortality measured by Time-mortality bioassay; type: functional
Spodoptera frugiperda [2] = assay: Insecticidal activity in second instar Spodoptera frugiperda (fall armyworm) in compound treated maize leaf assessed as mortality measured by Time-mortality bioassay; type: functional
[3] = Selectivity ratio of LC50 for adult earwig species Doru luteipes to LC50 for second instar fall armyworm Spodoptera frugiperda by concentration-mortality bioassay; type: functional
Doru [4] = assay: Relative toxicity in adult Doru luteipes (earwigs) in compound treated maize leaf assessed as mortality measured after 48 hr by concentration-mortality bioassay; type: functional
Doru [5] = assay: Insecticidal activity against adult Doru luteipes (earwigs) in compound treated maize leaf assessed as mortality measured after 48 hr by concentration-mortality bioassay; type: functional
Spodoptera frugiperda [6] = assay: Relative toxicity in second instar Spodoptera frugiperda (fall armyworm) in compound treated maize leaf assessed as mortality measured after 48 hr by concentration-mortality bioassay; type: functional
Spodoptera frugiperda [7] = assay: Insecticidal activity in second instar Spodoptera frugiperda (fall armyworm) in compound treated maize leaf assessed as mortality measured after 48 hr by concentration-mortality bioassay; type: functional
Doru [8] = assay: Insecticidal activity against adult Doru luteipes (earwigs) in compound treated maize leaf assessed as insect avoidance by behavioral bioassay; type: functional, organism-based
Doru [9] = assay: Relative toxicity in adult Doru luteipes (earwigs) in compound treated maize leaf assessed as mortality measured by time-mortality bioassay; type: functional
Doru [10] = assay: Insecticidal activity against adult Doru luteipes (earwigs) in compound treated maize leaf assessed as mortality measured by time-mortality bioassay; type: functional
Doru [11] = assay: Insecticidal activity against adult Doru luteipes earwigs) in compound treated maize leaf assessed as higher in number of stops in half-treated arenas measured during 10 min compound exposure by behavioral locomotory bioassay; type: functional, organism-based
Doru [12] = assay: Insecticidal activity against adult Doru luteipes earwig ) in compound treated maize leaf assessed as higher resting time in half-treated arenas measured during 10 min compound exposure by behavioral locomotory bioassay; type: functional, organism-based
Doru [13] = assay: Insecticidal activity against adult Doru luteipes (earwigs) in compound treated maize leaf assessed as reduction in walking velocity in fully-treated arenas measured during 10 min compound exposure by behavioral locomotory bioassay; type: functional, organism-based
Doru [14] = assay: Insecticidal activity against adult Doru luteipes (earwigs) in compound treated maize leaf assessed as reduction in distance walked in fully-treated arenas measured during 10 min compound exposure by behavioral locomotory bioassay; type: functional, organism-based

SMILES	Ratio (Spodoptera frugiperda [1])	LT50 (Spodoptera frugiperda [2]) [min]	RatioLC50 [3]	Ratio (Doru [4])	LC50 (Doru [5]) [µg/mL]	Ratio (Spodoptera frugiperda [6])	LC50 (Spodoptera frugiperda [7]) [µg/mL]	inhibition (Doru [8])	Ratio (Doru [9])	LT50 (Doru [10]) [h]	inhibition (Doru [11])	inhibition (Doru [12])	inhibition (Doru [13])	inhibition (Doru [14])
CC1(C)[C@H](C(=O)O[C@H](C#N)c2cccc(Oc3ccccc3)c2)[C@@H]1C=C(Br)Br [DELTAMETHRIN]	2.63	44.84	152	33000	22.6 (≈ 44.7 µM)	23.2	0.18 (≈ 0.356 µM)							
CCOCn1c(-c2ccc(Cl)cc2)c(C#N)c(Br)c1C(F)(F)F [CHLORFENAPYR]	6.83	116.34	22.5	14000	53.3 (≈ 131 µM)	1.78	2.37 (≈ 5.81 µM)	Active	12.48	21.58				
CNC(=O)ON=C(C)SC [METHOMYL]	1.71	29.18	517	348	2180 (≈ 13400 µM)	1	4.21 (≈ 26 µM)							
CC[C@H]1CCC[C@H](O[C@H]2CC[C@H](N(C)C)[C@@H](C)O2)[C@@H](C)C(=O)C2=C[C@@H]3[C@@H](C=C(C)[C@@H]4C[C@@H](O[C@@H]5O[C@@H](C)[C@H](OC)[C@@H](OC)[C@H]5OC)C[C@@H]34)[C@@H]2CC(=O)O1.CC[C@H]1CCC[C@H](O[C@H]2CC[C@H](N(C)C)[C@@H](C)O2)[C@@H](C)C(=O)C2=C[C@@H]3[C@@H](C=C[C@@H]4C[C@@H](O[C@@H]5O[C@@H](C)[C@H](OC)[C@@H](OC)[C@H]5OC)C[C@@H]34)[C@@H]2CC(=O)O1	2.77	47.17	3530	3528	215	99.47	0.04		6.61	11.43	Active	Active	Active	Active
CCOP(=S)(OCC)Oc1nc(Cl)c(Cl)cc1Cl [CHLORPYRIFOS]	1.26	21.52	1.2	550000	1.4 (≈ 3.99 µM)	3.57	1.18 (≈ 3.37 µM)	Active	1	1.73				
CNC(=O)c1cc(Cl)cc(C)c1NC(=O)c1cc(Br)nn1-c1ncccc1Cl [CHLORANTRANILIPROLE]	4.97	84.61	980000	1		5.46	0.77 (≈ 1.59 µM)							
CC1(C)[C@H](/C=C(\Cl)C(F)(F)F)[C@@H]1C(=O)O[C@@H](C#N)c1cccc(Oc2ccccc2)c1 (relative stereo) [REL-LAMBDA CYHALOTHRIN]	1.47	25.03	23.7	45000	16.6 (≈ 36.9 µM)	6	0.7 (≈ 1.56 µM)		1.23	2.12				
CCOc1ccc(C(C)(C)COCc2cccc(Oc3ccccc3)c2)cc1 [ETOFENPROX]	1	17.03	198	1133.5	668 (≈ 1770 µM)	1.25	3.37 (≈ 8.95 µM)	Active						
